The values that follow come from patent US10059701B2 (Merck Patent GmbH, priority 2015, dated 2018).

One assay addresses T1, IRAK1 (Homo sapiens, UniProt P51617).
T1 construct: His-TEV-IRAK1 (194-712); His (N); TEV cleavage site (N)
Put plainly: IRAK1 enzymatic assay (ADP-Glo luminescence). The format is biochemical. Conditions: purified human recombinant His-TEV-IRAK1 (194-712). Summed up:
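Recombinant human His-TEV-IRAK1 (194-712), 0.3 μg/ml, preincubated 15 min at RT with compounds (10 μM to 0.5 nM) in 50 mM Hepes pH 7.0, 10 mM MgCl2, 2 mM DTT, 0.1% BSA. ATP-started reaction run 2 hours at RT; ADP formed from ATP hydrolysis/autophosphorylation read by ADP-Glo luminescence.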
Background: In ADP-Glo the light output rises with the ADP produced.

The target in a further assay is T2, IRAK4 (Homo sapiens, UniProt Q9NWZ3).
T2 construct: His-TEV-IRAK4 (1-460); His (N); TEV cleavage site (N)
T2 sequence (Q9NWZ3 1-460): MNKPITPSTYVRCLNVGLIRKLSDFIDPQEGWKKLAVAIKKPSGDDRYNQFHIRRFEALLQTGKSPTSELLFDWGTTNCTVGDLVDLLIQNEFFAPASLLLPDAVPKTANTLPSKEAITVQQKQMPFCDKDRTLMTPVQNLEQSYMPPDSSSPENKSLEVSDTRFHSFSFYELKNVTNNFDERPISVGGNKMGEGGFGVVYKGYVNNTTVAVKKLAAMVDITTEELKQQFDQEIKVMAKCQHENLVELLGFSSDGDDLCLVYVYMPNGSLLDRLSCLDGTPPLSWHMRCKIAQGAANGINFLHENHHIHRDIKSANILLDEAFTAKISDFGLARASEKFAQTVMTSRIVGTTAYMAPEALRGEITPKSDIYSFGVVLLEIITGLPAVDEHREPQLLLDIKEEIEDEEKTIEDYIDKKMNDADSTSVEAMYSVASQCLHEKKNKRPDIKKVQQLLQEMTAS
The assay can be described thus: IRAK4 enzymatic assay (ADP-Glo luminescence). In kind it is biochemical. Conditions: purified human recombinant His-TEV-IRAK4 (1-460), ATP 2 μM. Summed up:
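Recombinant His-TEV-IRAK4 (1-460) at 0.3 μg/ml preincubated 15 min at RT with compounds (10 μM to 0.5 nM) in Hepes pH 7.0 buffer with MgCl2/MnCl2. Reaction started with 2 μM ATP and 300 nM STK1-biotin peptide, run 2 h at RT. ADP formed read by ADP-Glo luminescence.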

Each structure is given as a SMILES string. Bounds are passed on as bounds.

As usually defined, the IC50 is the concentration that gives 50% inhibition.

T1 sequence (P51617 194-712): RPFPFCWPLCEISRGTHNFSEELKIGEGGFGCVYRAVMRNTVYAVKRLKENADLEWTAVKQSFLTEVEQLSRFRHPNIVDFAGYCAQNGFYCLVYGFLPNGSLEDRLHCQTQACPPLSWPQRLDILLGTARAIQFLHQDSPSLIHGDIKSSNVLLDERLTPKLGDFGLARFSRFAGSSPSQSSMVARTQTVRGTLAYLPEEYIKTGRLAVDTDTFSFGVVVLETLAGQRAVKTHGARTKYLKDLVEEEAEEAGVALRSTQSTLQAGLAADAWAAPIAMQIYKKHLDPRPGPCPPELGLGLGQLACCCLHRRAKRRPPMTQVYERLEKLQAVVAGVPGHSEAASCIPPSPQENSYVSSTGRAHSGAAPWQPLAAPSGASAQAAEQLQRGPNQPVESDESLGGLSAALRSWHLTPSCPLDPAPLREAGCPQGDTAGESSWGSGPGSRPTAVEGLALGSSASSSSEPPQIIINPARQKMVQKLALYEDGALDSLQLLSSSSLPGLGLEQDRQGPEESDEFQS

For `[2H]C([2H])([2H])Oc1cc2c(cc1N1CCCOC1=O)[nH]/c(=N\C(=O)c1cccc(C(F)(F)F)c1)n2CCCO` [Example 204, (E)-N-(1-(3-hydroxypropyl)-6-(trideuteromethoxy)-5-(2-oxo-1,3-oxazinan-3-yl)-1H-benzo[d]imidazol-2(3H)-ylidene)-3-(trifluoromethyl)benzamide], the IC50 on IRAK1 and at IRAK4 was at most 100 nM in each case.
For `O=C(/N=c1\[nH]c2cc(N3CCOCC3=O)c(F)cc2n1CCCO)c1cccc(C(F)(F)F)c1` [Compound 139, (E)-N-(6-fluoro-1-(3-hydroxypropyl)-5-(3-oxomorpholino)-1H-benzo[d]imidazol-2(3H)-ylidene)-3-(trifluoromethyl)benzamide], the IC50 on IRAK1 was 100 to 1000 nM; on IRAK4 it was at most 100 nM.
As to `O=C(/N=c1\[nH]c2cc(N3CCOCC3=O)ccc2n1CCCO)c1cccc(F)c1` [Compound 35, (E)-3-fluoro-N-(1-(3-hydroxypropyl)-5-(3-oxomorpholino)-1H-benzo[d]imidazol-2(3H)-ylidene)benzamide], the half-maximal inhibitory concentration (IC50) was 100 to 1000 nM at IRAK1 and at most 100 nM at IRAK4.
Consider `CC(F)(F)c1cccc(C(=O)/N=c2\[nH]c3cc(N4CCOCC4=O)ccc3n2CCCO)c1` [Compound 103, (E)-3-(1,1-difluoroethyl)-N-(1-(3-hydroxypropyl)-5-(3-oxomorpholino)-1H-benzo[d]imidazol-2(3H)-ylidene)benzamide], for which the figures for the concentration for half-maximal inhibition (IC50) on IRAK1 and on IRAK4 were 100 to 1000 nM and at most 100 nM, respectively.
Taken in the same sequence, the figures for `O=C(/N=c1\[nH]c2cc(N3CCOCC3=O)ccc2n1CCCO)c1cc(F)cc(C(F)(F)F)c1` [Compound 81, (E)-3-fluoro-N-(1-(3-hydroxypropyl)-5-(3-oxomorpholino)-1H-benzo[d]imidazol-2(3H)-ylidene)-5-(trifluoromethyl)benzamide] were at most 100 nM and at most 100 nM.
As for `CC1(C)C(=O)N(c2ccc3c(c2)[nH]/c(=N\C(=O)c2cccc(C(F)(F)F)c2)n3CCCO)CCN1C1CC1` [Compound 194, (E)-N-(5-(4-cyclopropyl-3,3-dimethyl-2-oxopiperazin-1-yl)-1-(3-hydroxypropyl)-1H-benzo[d]imidazol-2(3H)-ylidene)-3-(trifluoromethyl)benzamide], the values for the half-maximal inhibitory concentration (IC50) at IRAK1 and on IRAK4 were 100 to 1000 nM and at most 100 nM, respectively.
As to `O=C(/N=c1\[nH]c2cc(N3CCOCC3=O)ccc2n1CCCO)c1cncc(C(F)(F)F)c1` [Compound 85, (E)-N-(1-(3-hydroxypropyl)-5-(3-oxomorpholino)-1H-benzo[d]imidazol-2(3H)-ylidene)-5-(trifluoromethyl)nicotinamide], the IC50 was 100 to 1000 nM on IRAK1 and at most 100 nM at IRAK4.
With `O=C(/N=c1\[nH]c2cc(N3CCCOC3=O)ccc2n1C1CC1)c1cccc(C(F)(F)F)c1` [Compound 172, (E)-N-(1-cyclopropyl-5-(2-oxo-1,3-oxazinan-3-yl)-1H-benzo[d]imidazol-2(3H)-ylidene)-3-(trifluoromethyl)benzamide], the IC50 on IRAK1 is over 1000 nM; at IRAK4 it was at most 100 nM.
On to `O=C(/N=c1\[nH]c2cc(N3CCOCC3=O)c(F)cc2n1CCCO)c1cccc(C(F)F)c1` [Compound 140, (E)-3-(difluoromethyl)-N-(6-fluoro-1-(3-hydroxypropyl)-5-(3-oxomorpholino)-1H-benzo[d]imidazol-2(3H)-ylidene)benzamide], for which the IC50 was 100 to 1000 nM on IRAK1 and at most 100 nM at IRAK4.
As to `O=C(/C=C1\Nc2cc(N3CCOCC3=O)ccc2N1CCCO)c1cccc(Br)n1` [Compound 148, (E)-4-(2-(2-(6-bromopyridin-2-yl)-2-oxoethylidene)-1-(3-hydroxypropyl)-2,3-dihydro-1H-benzo[d]imidazol-5-yl)morpholin-3-one], the IC50 on IRAK1 was 100 to 1000 nM; at IRAK4 it was at most 100 nM.
For `O=C(/N=c1\[nH]c2cc(N3CCCOCC3=O)ccc2n1CCCO)c1cccc(C(F)F)c1` [Example 186, (E)-3-(difluoromethyl)-N-(1-(3-hydroxypropyl)-5-(3-oxo-1,4-oxazepan-4-yl)-1H-benzo[d]imidazol-2(3H)-ylidene)benzamide], the IC50 on IRAK1 and on IRAK4 was at most 100 nM throughout.
On to `COc1cc2c(cc1N1CCOCC1=O)[nH]/c(=N\C(=O)c1cccc(CO)c1)n2CCCO` [Compound 64, (E)-3-(hydroxymethyl)-N-(1-(3-hydroxypropyl)-6-methoxy-5-(3-oxomorpholino)-1H-benzo[d]imidazol-2(3H)-ylidene)benzamide], for which the 50% inhibitory concentration (IC50) at IRAK1 was 100 to 1000 nM; on IRAK4 it was at most 100 nM.
Take `N#Cc1cccc(C(=O)/N=c2\[nH]c3cc(N4CCOCC4=O)ccc3n2CCCO)c1` [Compound 3, (E)-3-cyano-N-(1-(3-hydroxypropyl)-5-(3-oxomorpholino)-1H-benzo[d]imidazol-2(3H)-ylidene)benzamide]: the figures for the IC50 on IRAK1 and at IRAK4 were 100 to 1000 nM and at most 100 nM, respectively.
Regarding `O=C(/N=c1\[nH]c2cc(N3CCCNC3=O)ccc2n1CCCO)c1cccc(C(F)F)c1` [Compound 46, (E)-3-(difluoromethyl)-N-(1-(3-hydroxypropyl)-5-(2-oxotetrahydropyrimidin-1(2H)-yl)-1H-benzo[d]imidazol-2(3H)-ylidene)benzamide], the half-inhibitory concentration (IC50) is 100 to 1000 nM at IRAK1 and at most 100 nM at IRAK4.
On to `C#CCn1/c(=N/C(=O)c2cccc(C(F)(F)F)c2)[nH]c2cc(N3CCCOC3=O)ccc21` [Compound 175, (E)-N-(5-(2-oxo-1,3-oxazinan-3-yl)-1-(prop-2-yn-1-yl)-1H-benzo[d]imidazol-2(3H)-ylidene)-3-(trifluoromethyl)benzamide], for which the values for the concentration for half-maximal inhibition (IC50) on IRAK1 and at IRAK4 were 100 to 1000 nM and at most 100 nM, respectively.
For the molecule `O=C(/N=c1\[nH]c2cc(N3CCCOC3=O)ccc2n1C1CC(F)(F)C1)c1cccc(C(F)(F)F)c1` [Compound 156, (E)-N-(1-(3,3-difluorocyclobutyl)-5-(2-oxo-1,3-oxazinan-3-yl)-1H-benzo[d]imidazol-2(3H)-ylidene)-3-(trifluoromethyl)benzamide], the results for the IC50 at IRAK1 and at IRAK4 were 100 to 1000 nM and at most 100 nM, respectively.
For the molecule `Cn1cnc2cc(C(=O)/N=c3\[nH]c4cc(N5CCOCC5=O)ccc4n3CCCO)ccc21` [Compound 22, (E)-N-(1-(3-hydroxypropyl)-5-(3-oxomorpholino)-1H-benzo[d]imidazol-2(3H)-ylidene)-1-methyl-1H-benzo[d]imidazole-5-carboxamide], the concentration for half-maximal inhibition (IC50) on IRAK1 and at IRAK4 was over 1000 nM in each case.
Take `CN1CCC(n2/c(=N/C(=O)c3cccc(C(F)F)c3)[nH]c3cc(N4CCOCC4=O)ccc32)CC1` [Compound 165, (E)-3-(difluoromethyl)-N-(1-(1-methylpiperidin-4-yl)-5-(3-oxomorpholino)-1H-benzo[d]imidazol-2(3H)-ylidene)benzamide]: the IC50 on IRAK1 and on IRAK4 was 100 to 1000 nM throughout.
`CC1(C)CCOC(=O)N1c1ccc2[nH]c(=NC(=O)c3cccc(C(F)(F)F)c3)n(CCCO)c2c1` [Example 221]: the figures for the half-maximal inhibitory concentration (IC50) at IRAK1 and on IRAK4 were 100 to 1000 nM and at most 100 nM, respectively.
As to `CC(C)(C)OC(=O)N1CCC(n2/c(=N/C(=O)c3cccc(C(F)(F)F)c3)[nH]c3cc(N4CCOCC4=O)ccc32)CC1` [Compound 126, (E)-tert-butyl 4-(5-(3-oxomorpholino)-2-((3-(trifluoromethyl)benzoyl)imino)-2,3-dihydro-1H-benzo[d]imidazole-1-yl)piperidine-1-carboxylate], the values for the IC50 on IRAK1 and at IRAK4 were over 1000 nM and at most 100 nM, respectively.
Taken in the same sequence, the figures for `CC1(C)CN(c2ccc3c(c2)[nH]/c(=N\C(=O)c2cccc(C(F)(F)F)c2)n3CCCO)C(=O)O1` [Example 199, (E)-N-(5-(5,5-dimethyl-2-oxooxazolidin-3-yl)-1-(3-hydroxypropyl)-1H-benzo[d]imidazol-2(3H)-ylidene)-3-(trifluoromethyl)benzamide] were 100 to 1000 nM and at most 100 nM.
On to `O=C(/N=c1\[nH]c2cc(N3CCOCC3=O)ccc2n1CCCO)c1ccc2nc[nH]c2c1` [Compound 102, (E)-N-(1-(3-hydroxypropyl)-5-(3-oxomorpholino)-1H-benzo[d]imidazol-2(3H)-ylidene)-1H-benzo[d]imidazole-6-carboxamide], for which the half-inhibitory concentration (IC50) on IRAK1 and on IRAK4 was over 1000 nM in each case.
Take `COc1cc2c(cc1N1CCCOC1=O)[nH]/c(=N\C(=O)c1cccc(C(F)F)c1)n2CCCO` [Example 207, (E)-3-(difluoromethyl)-N-(1-(3-hydroxypropyl)-6-methoxy-5-(2-oxo-1,3-oxazinan-3-yl)-1H-benzo[d]imidazol-2(3H)-ylidene)benzamide]: the concentration for half-maximal inhibition (IC50) on IRAK1 and on IRAK4 was at most 100 nM each time.
